# Test results reported in paper PMC10819570, “Design, Synthesis, and Biological Evaluation of 2-Substituted Aniline Pyrimidine Derivatives as Potent Dual Mer/c-Met Inhibitors” (Molecules, 2024).
# Values joined by “and” are separate entries in the source; they are usually repeats but may differ in a detail not shown here. Equal values may be shown once.
# What was measured:
# [1] = target: c-Met kinase (Homo sapiens, UniProt P08581); test: c-Met kinase inhibitory activity assay (in vitro); type: biochemical; details: ATP 30 uM, enzyme 0.25 nM; means from three independent experiments
# c-Met kinase, sequence (P08581 25-1390): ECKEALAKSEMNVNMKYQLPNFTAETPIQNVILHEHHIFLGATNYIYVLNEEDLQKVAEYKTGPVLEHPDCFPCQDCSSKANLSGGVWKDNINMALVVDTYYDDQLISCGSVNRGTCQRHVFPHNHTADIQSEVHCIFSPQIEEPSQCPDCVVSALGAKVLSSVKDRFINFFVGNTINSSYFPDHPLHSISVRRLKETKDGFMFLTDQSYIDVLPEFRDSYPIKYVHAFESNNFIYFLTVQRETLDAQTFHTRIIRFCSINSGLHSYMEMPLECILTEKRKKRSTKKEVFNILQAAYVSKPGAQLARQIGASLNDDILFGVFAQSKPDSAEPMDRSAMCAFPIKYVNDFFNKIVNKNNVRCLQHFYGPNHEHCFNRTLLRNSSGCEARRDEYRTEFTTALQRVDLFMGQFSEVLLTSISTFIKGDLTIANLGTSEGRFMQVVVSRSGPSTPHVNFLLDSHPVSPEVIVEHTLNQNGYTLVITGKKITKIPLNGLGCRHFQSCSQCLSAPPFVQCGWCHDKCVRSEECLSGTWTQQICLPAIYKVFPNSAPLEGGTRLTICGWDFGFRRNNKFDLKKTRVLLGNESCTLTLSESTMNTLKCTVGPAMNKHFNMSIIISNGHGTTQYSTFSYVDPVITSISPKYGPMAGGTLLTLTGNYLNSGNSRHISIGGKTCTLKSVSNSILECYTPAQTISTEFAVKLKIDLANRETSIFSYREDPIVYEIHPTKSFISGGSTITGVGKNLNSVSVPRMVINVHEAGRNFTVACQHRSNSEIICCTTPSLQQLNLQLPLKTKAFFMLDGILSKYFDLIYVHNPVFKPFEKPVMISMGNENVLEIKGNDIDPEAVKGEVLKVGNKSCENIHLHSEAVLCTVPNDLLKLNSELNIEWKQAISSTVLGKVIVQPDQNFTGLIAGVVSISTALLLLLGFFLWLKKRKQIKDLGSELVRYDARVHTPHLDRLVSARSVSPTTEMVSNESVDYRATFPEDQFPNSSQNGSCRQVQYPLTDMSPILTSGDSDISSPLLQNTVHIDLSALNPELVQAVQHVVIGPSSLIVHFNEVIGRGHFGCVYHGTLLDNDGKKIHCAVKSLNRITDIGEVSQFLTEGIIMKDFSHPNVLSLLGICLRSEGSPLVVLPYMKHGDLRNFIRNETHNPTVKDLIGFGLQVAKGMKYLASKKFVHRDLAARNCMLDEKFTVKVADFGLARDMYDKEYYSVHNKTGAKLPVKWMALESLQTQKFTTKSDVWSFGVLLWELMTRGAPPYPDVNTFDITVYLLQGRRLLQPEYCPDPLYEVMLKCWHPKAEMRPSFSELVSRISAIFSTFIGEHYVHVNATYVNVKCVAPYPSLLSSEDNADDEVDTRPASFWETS
# Experimental: (§1) The in vitro inhibition assays of all final compounds against Mer and c-Met kinase were performed by Shanghai Bioduro Biological Technology Co., Ltd. (Shanghai, China). We prepared 1× buffer: HEPES 50 mM, MgCl2 10 mM, EGTA 1 mM, NP-40 0.0001%, DTT 2 mM; compound dilution with DMSO. For test compounds, a 100 × final concentration solution was prepared. About 100 nL compounds were transferred to a 384-well plate by using the automated liquid handler. The final DMSO% in the assay is 1%. Enzyme stock solutions were diluted with 1× assay buffer to a concentration of 0.5 nM to make a 2× working solution. […] Substrate solutions were diluted with 1× assay buffer. About 5 μL mix or buffer was added manually to the assay plate (ATP final 30 uM and TK-Sub-Biotin final 2 uM) using a multichannel pipette, spun down at 1000 rpm, and centrifuged for 30 s. After incubating at 30 °C for 60 min, 10 μL of detection solution was added to each well of the assay, mixed briefly with a centrifuge, and equilibrated for another 60 min. The luminescence was recorded using Envision.
# [2] = target: T1, Mer kinase (Homo sapiens, UniProt Q12866); test: Mer kinase inhibitory activity assay (in vitro); type: biochemical; details: ATP 30 uM, enzyme 0.25 nM; means from three independent experiments
# T1 sequence (Q12866 21-999): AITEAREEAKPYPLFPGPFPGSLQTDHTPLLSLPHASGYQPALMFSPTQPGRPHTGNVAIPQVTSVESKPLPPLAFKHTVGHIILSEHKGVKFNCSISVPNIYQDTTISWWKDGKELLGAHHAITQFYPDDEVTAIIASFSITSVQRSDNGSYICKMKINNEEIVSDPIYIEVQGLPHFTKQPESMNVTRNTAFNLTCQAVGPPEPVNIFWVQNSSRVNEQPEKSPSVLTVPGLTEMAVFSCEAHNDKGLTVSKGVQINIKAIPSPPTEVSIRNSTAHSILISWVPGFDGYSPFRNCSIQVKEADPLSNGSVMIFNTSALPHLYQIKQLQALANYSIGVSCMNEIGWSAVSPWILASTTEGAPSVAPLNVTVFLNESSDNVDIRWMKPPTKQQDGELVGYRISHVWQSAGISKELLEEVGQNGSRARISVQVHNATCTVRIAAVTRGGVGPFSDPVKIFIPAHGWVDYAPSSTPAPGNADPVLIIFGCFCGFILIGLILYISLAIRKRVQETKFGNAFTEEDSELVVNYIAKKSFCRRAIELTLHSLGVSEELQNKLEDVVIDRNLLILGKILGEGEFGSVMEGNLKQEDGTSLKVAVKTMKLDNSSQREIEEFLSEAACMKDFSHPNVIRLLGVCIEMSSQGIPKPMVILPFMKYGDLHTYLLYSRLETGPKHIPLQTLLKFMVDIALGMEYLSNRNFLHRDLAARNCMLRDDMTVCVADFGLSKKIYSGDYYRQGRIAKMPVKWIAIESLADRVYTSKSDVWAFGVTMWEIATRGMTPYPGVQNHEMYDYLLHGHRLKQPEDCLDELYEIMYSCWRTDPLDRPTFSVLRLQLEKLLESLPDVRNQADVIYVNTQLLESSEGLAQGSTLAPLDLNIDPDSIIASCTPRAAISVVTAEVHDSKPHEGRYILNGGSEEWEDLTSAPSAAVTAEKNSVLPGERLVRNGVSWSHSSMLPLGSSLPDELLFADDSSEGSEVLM
# Experimental: as §1
# [3] = test system: MDA-MB-231 cells; test: Antiproliferation assay (CCK-8), MDA-MB-231; type: cell-based; details: Homo sapiens, MDA-MB-231; CCK-8, 72 h; read-out: IC50 antiproliferative MDA-MB0231
# Experimental: (§2) The antiproliferative activities of the compounds against HepG2, MDA-MB-231, and HCT116 cell lines were tested by the standard CCK-8 method. Cell viability was measured by Cell Counting Kit-8 (Meilunbio, Dalian, China) according to the manufacturer’s instructions. Briefly, cancer cells were seeded into 96-well plates at a density of 2.5 × 10^3 cells per well. […] Subsequently, CCK-8 solution was added into each well and incubated for an additional 2 h. The absorbance at 450 nm was determined in each well using the BioTek Synergy HTX microplate reader. The assay was performed in triplicate, and each experiment was repeated three times.
# [4] = test system: HCT116 cells; test: Antiproliferation assay (CCK-8), HCT116; type: cell-based; details: Homo sapiens, HCT-116; CCK-8, 72 h; read-out: IC50 antiproliferative HCT116
# Experimental: as §2, with “Cell” for “The antiproliferative activities of the compounds against HepG2, MDA-MB-231, and HCT116 cell lines were tested by the standard CCK-8 method. Cell”
# [5] = test system: HepG2 cells; test: Antiproliferation assay (CCK-8), HepG2; type: cell-based; details: Homo sapiens, HepG2; CCK-8, 72 h; read-out: IC50 antiproliferative HepG2
# Experimental: as §2
# [6] = Liver microsome stability assay; type: in vitro ADME; details: pH 7.4, human liver microsomes 0.2 mg/mL, test compound 1 μM, NADPH; for microsomal CLint at 1 μM: read-out: CL Human; for half-life at 1 μM: read-out: T1/2 Human
# Experimental: Stock solution (10 mM) of each of test compound was prepared in DMSO. The stock solution for each compound was then diluted into 200 μM with acetonitrile. Incubation mixtures were prepared in a total volume of 200 μL with final component concentrations as follows: 0.1 M PBS (pH 7.4), NADPH (2 mM), liver microsomes (0.2 mg/mL), and test compound (1 μM) or positive control. NAPDH was added after a 5 min preincubation of all other components at 37 °C, then pipette-mixed to achieve a homogenous suspension and immediately transferred 20 μL of the incubate as a 0 min sample to wells in a “Quenching” plate, followed by pipette-mixing. At 5, 15, 30, and 60 min, we pipette-mixed the incubate and serially transferred samples of 20 μL of the incubate per time point to wells in a separate “Quenching” plate, followed by pipette-mixing. In “Quenching” plates, 200 μL of acetonitrile was added with IS. The 96 wells were centrifuged at 4000 rpm for 10 min. Then 50 μL of supernatant was mixed with 50 μL of ddH2O and injected into the LC-MS/MS system for analysis.
Compound,IC50 [1] [nM],IC50 [2],further results
CCN1CCN(CC(=O)Nc2ccc(Nc3nccc(Oc4ccc(NC(=O)C5(C(=O)Nc6ccc(F)cc6)CC5)cc4)n3)cc2)CC1 [Compound 18g],48.7 ± 8.7,20.3 ± 3.2 nM,
CN1CCN(CC(=O)N(C)c2ccc(Nc3nccc(Oc4ccc(NC(=O)C5(C(=O)Nc6ccc(F)cc6)CC5)cc4)n3)cc2)CC1 [Compound 18m],74.4 ± 13.5,126 ± 17.8 nM,
CC(C)N1CCN(CC(=O)Nc2ccc(Nc3nccc(Oc4ccc(NC(=O)C5(C(=O)Nc6ccc(F)cc6)CC5)cc4)n3)cc2)CC1 [Compound 18h],42.6 ± 8.1,12.4 ± 1.9 nM,
Cc1c(C(=O)Nc2ccc(Oc3ccnc(Nc4ccc(NS(=O)(=O)c5ccccc5)cc4)n3)cc2)c(=O)n(-c2ccccc2)n1C [Compound 14c],> 1000,166 ± 21.6 nM,
Cc1c(C(=O)Nc2ccc(Oc3ccnc(Nc4ccc(NC(=O)CN5CCN(C)CC5)c(C#N)c4)n3)cc2)c(=O)n(-c2ccccc2)n1C [Compound 14g],89.4 ± 12.6,7.1 ± 0.9 nM,
"COc1cc2nccc(Oc3ccc(NC(=O)C4(C(=O)Nc5ccc(F)cc5)CC4)cc3)c2cc1OC [Cabozantinib, reference compound]",,,IC50 [3]: 29000 nM; IC50 [4]: 7820 nM; IC50 [5]: 1720 nM
CN1CCN(CC(=O)Nc2cccc(Nc3nccc(Oc4ccc(NC(=O)C5(C(=O)Nc6ccc(F)cc6)CC5)cc4)n3)c2)CC1 [Compound 18o],39.8 ± 6.6,24.8 ± 3.3 nM,microsomal CLint at 1 μM [6]: 400 µL/min/mg; half-life at 1 μM [6]: 8.6 min
Cc1c(C(=O)Nc2ccc(Oc3ccnc(Nc4ccc(N(C)C(=O)CN5CCN(C)CC5)cc4)n3)cc2)c(=O)n(-c2ccccc2)n1C [Compound 14i],224 ± 24.6,97.1 ± 12.7 nM,
CC(=O)N1CCN(CC(=O)Nc2ccc(Nc3nccc(Oc4ccc(NC(=O)C5(C(=O)Nc6ccc(F)cc6)CC5)cc4)n3)cc2)CC1 [Compound 18j],32.8 ± 5.8,57.5 ± 9.4 nM,
Cc1c(C(=O)Nc2ccc(Oc3ccnc(Nc4ccc(NC(=O)CN5CCN(C)CC5)c(F)c4)n3)cc2)c(=O)n(-c2ccccc2)n1C [Compound 14h],74.9 ± 12.2,12.5 ± 2 nM,
O=C(Nc1ccc(F)cc1)C1(C(=O)Nc2ccc(Oc3ccnc(Nc4ccc(CCC(O)c5ccccc5)cc4)n3)cc2)CC1 (stereo not drawn) [Compound 18f],> 1000,463 ± 55.4 nM,
COCCNc1ccc(Nc2nccc(Oc3ccc(NC(=O)C4(C(=O)Nc5ccc(F)cc5)CC4)cc3)n2)cc1 [Compound 18e],77.3 ± 13.1,159 ± 17.4 nM,
O=C(Nc1ccc(F)cc1)C1(C(=O)Nc2ccc(Oc3ccnc(Nc4ccc(NS(=O)(=O)c5ccccc5)cc4)n3)cc2)CC1 [Compound 18b],941 ± 65.9,> 10000 nM,
CN1CCN(CC(=O)Nc2ccc(Nc3nccc(Oc4ccc(NC(=O)C5(C(=O)Nc6ccc(F)cc6)CC5)cc4)n3)cc2F)CC1 [Compound 18l],48.7 ± 8.2,18.3 ± 2.7 nM,microsomal CLint at 1 μM [6]: 360 µL/min/mg; half-life at 1 μM [6]: 9.6 min
Cc1c(C(=O)Nc2ccc(Oc3ccnc(Nc4cccc(NC(=O)CN5CCN(C)CC5)c4)n3)cc2)c(=O)n(-c2ccccc2)n1C [Compound 14d],144 ± 17.3,24.2 ± 2.6 nM,
CC(C(=O)Nc1ccc(Nc2nccc(Oc3ccc(NC(=O)C4(C(=O)Nc5ccc(F)cc5)CC4)cc3)n2)cc1)N1CCN(C)CC1 (stereo not drawn) [Compound 18n],30.7 ± 4.8,31.6 ± 5.4 nM,microsomal CLint at 1 μM [6]: 290 µL/min/mg; half-life at 1 μM [6]: 11.9 min
O=C(NCCCN1CCOCC1)c1ccc(Nc2nccc(Oc3ccc(NC(=O)C4(C(=O)Nc5ccc(F)cc5)CC4)cc3)n2)cc1 [Compound 18d],52.7 ± 8.5,42.4 ± 5.8 nM,
O=C(CN1CCN(CC2CC2)CC1)Nc1ccc(Nc2nccc(Oc3ccc(NC(=O)C4(C(=O)Nc5ccc(F)cc5)CC4)cc3)n2)cc1 [Compound 18i],77.1 ± 15.2,30.9 ± 5.3 nM,
CN1CCN(CC(=O)Nc2ccc(Nc3nccc(Oc4ccc(NC(=O)C5(C(=O)Nc6ccc(F)cc6)CC5)cc4)n3)cc2C#N)CC1 [Compound 18k],51.2 ± 8,10.2 ± 1.4 nM,
Cc1c(C(=O)Nc2ccc(Oc3ccnc(Nc4ccc(C(=O)NCCCN5CCOCC5)cc4)n3)cc2)c(=O)n(-c2ccccc2)n1C [Compound 14a],151 ± 22.6,8.1 nM and 7.9 nM,
Cc1c(C(=O)Nc2ccc(Oc3ccnc(Nc4ccc(NC(=O)CN5CCN(C)CC5)cc4)n3)cc2)c(=O)n(-c2ccccc2)n1C [Compound 14b],179 ± 25.2,9.6 nM and 9.4 nM,
Cc1c(C(=O)Nc2ccc(Oc3ccnc(Nc4cccc(C(=O)NCCCN5CCOCC5)c4)n3)cc2)c(=O)n(-c2ccccc2)n1C [Compound 14e],321 ± 25.6,40.3 ± 3.6 nM,
"C[C@]12CC[C@H]3[C@@H](CCC4=CC(=O)CC[C@@]43C)[C@@H]1CC[C@@H]2O [Testosterone, reference compound]",,,half-life at 1 μM [6]: 32.1 min
CC(=O)N1CCN(c2ccc(Nc3nccc(Oc4ccc(NC(=O)C5(C(=O)Nc6ccc(F)cc6)CC5)cc4)n3)cc2)CC1 [Compound 18a],15.4 ± 1.4,85.3 ± 6.8 nM,
